In ChEMBL document CHEMBL5055626 (J Med Chem, 2021):
Activity calls are given as the source filed them. The rule behind the calls is not given here. Where a SMILES comes first, the peptide text is derived from it. Bridges are numbered along the chain shown (N, C = ends).

What was measured:
Type in all cases: cell-based
Details in all cases: Oocyte
[1] = Antagonist activity at rat nAChR alpha7 M69V mutant expressed in xenopus oocytes assessed as inhibition of Ach- induced response at -70 mV holding potential preincubated for 5 mins followed by Ach stimulation by voltage-clamp based electrophysiological method
[2] = Antagonist activity at rat nAChR alpha7 S167G mutant expressed in xenopus oocytes assessed as inhibition of Ach- induced response at -70 mV holding potential preincubated for 5 mins followed by Ach stimulation by voltage-clamp based electrophysiological method
[3] = Antagonist activity at rat nAChR alpha7 K186R mutant expressed in xenopus oocytes assessed as inhibition of Ach- induced response at -70 mV holding potential preincubated for 5 mins followed by Ach stimulation by voltage-clamp based electrophysiological method
[4] = Antagonist activity at rat nAChR alpha7 Y200F mutant expressed in xenopus oocytes assessed as inhibition of Ach- induced response at -70 mV holding potential preincubated for 5 mins followed by Ach stimulation by voltage-clamp based electrophysiological method
[5] = Antagonist activity at human nAChR alpha7 H141Q mutant expressed in xenopus oocytes assessed as inhibition of Ach- induced response at -70 mV holding potential preincubated for 5 mins followed by Ach stimulation by voltage-clamp based electrophysiological method
[6] = Antagonist activity at human nAChR alpha7 S184N mutant expressed in xenopus oocytes assessed as inhibition of Ach- induced response at -70 mV holding potential preincubated for 5 mins followed by Ach stimulation by voltage-clamp based electrophysiological method
[7] = Antagonist activity at human nAChR alpha7 R186K mutant expressed in xenopus oocytes assessed as inhibition of Ach- induced response at -70 mV holding potential preincubated for 5 mins followed by Ach stimulation by voltage-clamp based electrophysiological method
[8] = biological target: Neuronal acetylcholine receptor; alpha2/beta2 (Rattus norvegicus) (UniProt P12389+P12390); assay: Antagonist activity at rat alpha2beta2 nAChR expressed in xenopus oocytes assessed as inhibition of Ach- induced response at 10 uM at -70 mV holding potential preincubated for 5 mins followed by Ach stimulation by voltage-clamp based electrophysiological method

Structure (SMILES): C[C@@H]1NC(=O)[C@@H]2CSSC[C@H](NC(=O)CN)C(=O)N[C@@H](CSSC[C@@H](C(N)=O)NC(=O)[C@H](Cc3cnc[nH]3)NC(=O)[C@H](CCC(=O)O)NC(=O)[C@H](Cc3cnc[nH]3)NC1=O)C(=O)N[C@@H](CO)C(=O)N[C@@H](CC(N)=O)C(=O)N1CCC[C@H]1C(=O)N1CCC[C@H]1C(=O)N2 (H-GCCSNPPCAHEHC-NH2; disulfide 2-8, 3-13)
- IC50 [1]: 130 nM
- IC50 [2]: 200 nM
- IC50 [3]: 430 nM
- IC50 [4]: 190 nM
- IC50 [5]: 1070 nM
- IC50 [6]: 850 nM
- IC50 [7]: 1130 nM
- inhibition [8]: inactive
